Test results: article PMC12951562, “SH2scan: Mapping SH2 Domain-Ligand Binding Selectivity for Inhibitors and Degraders” (Journal of Medicinal Chemistry, 2026)
Substitutions are numbered along the chain they refer to. Non-standard residues stand in square brackets, D forms with d. Residues, ends and D or L forms follow the SMILES beside them. pY = N[C@@H](Cc1ccc(OP(=O)(O)O)cc1)C(=O)O

Assays:
Experiment in all cases: biochemical
Assay type in all cases: binding
STAT5B(N642H) = molecular target: T1, STAT5B(N642H) (Homo sapiens, UniProt P51692, N642H)
T1 construct: made in house; host or cells: HEK293 (transient transfection), unpurified extract
T1 sequence (P51692 1-787 N642H): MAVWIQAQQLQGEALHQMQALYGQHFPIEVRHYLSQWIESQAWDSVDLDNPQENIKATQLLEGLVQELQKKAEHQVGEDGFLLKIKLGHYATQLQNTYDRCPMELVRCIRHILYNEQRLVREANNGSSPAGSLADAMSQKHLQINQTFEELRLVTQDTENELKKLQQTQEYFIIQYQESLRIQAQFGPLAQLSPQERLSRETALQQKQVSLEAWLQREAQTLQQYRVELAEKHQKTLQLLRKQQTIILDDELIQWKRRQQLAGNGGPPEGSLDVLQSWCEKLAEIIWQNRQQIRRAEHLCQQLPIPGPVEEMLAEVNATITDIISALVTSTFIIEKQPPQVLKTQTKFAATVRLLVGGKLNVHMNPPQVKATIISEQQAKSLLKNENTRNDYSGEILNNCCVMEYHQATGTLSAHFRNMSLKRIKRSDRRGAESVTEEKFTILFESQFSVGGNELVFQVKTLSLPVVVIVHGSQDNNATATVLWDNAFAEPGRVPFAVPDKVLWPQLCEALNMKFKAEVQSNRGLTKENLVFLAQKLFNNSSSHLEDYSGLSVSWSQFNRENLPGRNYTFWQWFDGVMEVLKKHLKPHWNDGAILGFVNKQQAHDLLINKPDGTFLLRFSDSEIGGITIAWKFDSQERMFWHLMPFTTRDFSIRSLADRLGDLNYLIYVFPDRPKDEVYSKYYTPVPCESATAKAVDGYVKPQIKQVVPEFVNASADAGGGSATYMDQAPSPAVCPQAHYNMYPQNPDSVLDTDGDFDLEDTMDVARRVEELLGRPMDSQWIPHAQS

STAT5B = molecular target: T2, STAT5B (Homo sapiens, UniProt P51692)
T2 construct: made in house; host or cells: HEK293 (transient transfection), unpurified extract
T2 sequence (P51692 1-787): T1 sequence (P51692 1-787 N642H) with H642N

FER = molecular target: T3, FER (Homo sapiens, UniProt P16591)
T3 construct: the DNA-tagged SH2 domain concentrations used in this study were <0.1 nM; made in house; host or cells: HEK293 (transient transfection; unpurified extract)

STAT4 = molecular target: T4, STAT4 (Homo sapiens, UniProt Q14765)
T4 construct: made in house; host or cells: HEK293 (transient transfection), unpurified extract
T4 sequence (Q14765 1-748): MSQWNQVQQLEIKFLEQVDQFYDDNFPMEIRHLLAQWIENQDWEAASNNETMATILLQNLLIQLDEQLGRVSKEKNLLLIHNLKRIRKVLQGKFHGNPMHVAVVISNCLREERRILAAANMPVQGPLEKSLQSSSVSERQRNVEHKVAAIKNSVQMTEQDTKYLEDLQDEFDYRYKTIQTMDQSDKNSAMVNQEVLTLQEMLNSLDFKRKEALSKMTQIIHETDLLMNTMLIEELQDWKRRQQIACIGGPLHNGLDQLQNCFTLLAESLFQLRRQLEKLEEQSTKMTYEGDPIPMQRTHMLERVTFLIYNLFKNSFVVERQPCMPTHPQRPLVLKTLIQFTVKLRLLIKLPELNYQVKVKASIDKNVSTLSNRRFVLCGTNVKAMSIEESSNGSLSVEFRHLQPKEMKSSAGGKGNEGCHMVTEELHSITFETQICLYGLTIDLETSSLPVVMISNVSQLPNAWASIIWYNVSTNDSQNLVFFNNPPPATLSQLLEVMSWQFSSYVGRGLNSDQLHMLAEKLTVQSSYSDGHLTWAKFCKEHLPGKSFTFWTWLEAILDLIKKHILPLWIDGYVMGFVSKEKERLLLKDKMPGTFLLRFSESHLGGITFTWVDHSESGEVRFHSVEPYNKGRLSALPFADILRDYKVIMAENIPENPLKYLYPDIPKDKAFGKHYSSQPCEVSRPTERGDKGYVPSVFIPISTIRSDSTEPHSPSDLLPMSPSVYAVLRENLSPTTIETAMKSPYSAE

ABL1 = molecular target: T5, ABL1 (Homo sapiens, UniProt P00519)
T5 construct: the DNA-tagged SH2 domain concentrations used in this study were <0.1 nM; made in house; host or cells: HEK293 (transient transfection; unpurified extract)
T5 sequence (P00519 127-217 limits assumed): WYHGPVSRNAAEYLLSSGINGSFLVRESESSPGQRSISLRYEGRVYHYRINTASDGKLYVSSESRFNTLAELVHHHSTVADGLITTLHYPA

STAT6 = molecular target: T6, STAT6 (Homo sapiens, UniProt P42226)
T6 construct: made in house; host or cells: HEK293 (transient transfection), unpurified extract
T6 sequence (P42226 1-847): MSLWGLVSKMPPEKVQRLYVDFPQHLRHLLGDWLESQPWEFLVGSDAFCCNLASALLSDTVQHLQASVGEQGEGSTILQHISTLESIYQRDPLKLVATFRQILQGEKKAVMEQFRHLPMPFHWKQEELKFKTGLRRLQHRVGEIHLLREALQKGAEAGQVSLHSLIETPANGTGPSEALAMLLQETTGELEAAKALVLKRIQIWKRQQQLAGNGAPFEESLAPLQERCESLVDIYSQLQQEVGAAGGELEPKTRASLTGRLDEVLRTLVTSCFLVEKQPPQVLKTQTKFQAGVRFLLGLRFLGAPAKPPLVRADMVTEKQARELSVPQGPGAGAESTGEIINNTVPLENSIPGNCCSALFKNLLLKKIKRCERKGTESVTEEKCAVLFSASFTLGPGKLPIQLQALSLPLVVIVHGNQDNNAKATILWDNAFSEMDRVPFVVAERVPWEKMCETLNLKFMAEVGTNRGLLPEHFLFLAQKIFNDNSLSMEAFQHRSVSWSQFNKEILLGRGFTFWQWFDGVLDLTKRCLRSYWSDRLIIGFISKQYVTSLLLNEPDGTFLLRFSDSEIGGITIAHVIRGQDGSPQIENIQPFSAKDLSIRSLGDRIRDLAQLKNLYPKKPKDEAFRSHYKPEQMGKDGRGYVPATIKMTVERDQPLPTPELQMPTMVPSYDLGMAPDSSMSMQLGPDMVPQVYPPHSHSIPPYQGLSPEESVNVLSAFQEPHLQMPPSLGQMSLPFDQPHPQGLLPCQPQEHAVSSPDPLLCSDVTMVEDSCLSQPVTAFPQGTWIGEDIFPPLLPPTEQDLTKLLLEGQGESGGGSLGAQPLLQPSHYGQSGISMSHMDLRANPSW

PIK3R2(SH2dom.C-term.) = molecular target: T7, PIK3R2(SH2dom.C-term.) (Homo sapiens, UniProt O00459)
T7 construct: SH2dom.C-term. denotes SH2 domain closest to C-terminus of protein; made in house; host or cells: HEK293 (transient transfection, unpurified extract)
T7 sequence (O00459 622-716 limits assumed): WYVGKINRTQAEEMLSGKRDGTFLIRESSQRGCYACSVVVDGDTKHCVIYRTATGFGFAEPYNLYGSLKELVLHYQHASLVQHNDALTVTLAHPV

PIK3R1(SH2dom.C-term.) = molecular target: T8, PIK3R1(SH2dom.C-term.) (Homo sapiens, UniProt P27986)
T8 construct: SH2dom.C-term. denotes SH2 domain closest to C-terminus of protein; made in house; host or cells: HEK293 (transient transfection, unpurified extract)

PIK3R3(SH2dom.C-term.) = molecular target: T9, PIK3R3(SH2dom.C-term.) (Homo sapiens, UniProt Q92569)
T9 construct: SH2dom.C-term. denotes SH2 domain closest to C-terminus of protein; made in house; host or cells: HEK293 (transient transfection, unpurified extract)

STAT1 = molecular target: T10, STAT1 (Homo sapiens, UniProt P42224)
T10 construct: made in house; host or cells: HEK293 (transient transfection), unpurified extract
T10 sequence (P42224 1-750): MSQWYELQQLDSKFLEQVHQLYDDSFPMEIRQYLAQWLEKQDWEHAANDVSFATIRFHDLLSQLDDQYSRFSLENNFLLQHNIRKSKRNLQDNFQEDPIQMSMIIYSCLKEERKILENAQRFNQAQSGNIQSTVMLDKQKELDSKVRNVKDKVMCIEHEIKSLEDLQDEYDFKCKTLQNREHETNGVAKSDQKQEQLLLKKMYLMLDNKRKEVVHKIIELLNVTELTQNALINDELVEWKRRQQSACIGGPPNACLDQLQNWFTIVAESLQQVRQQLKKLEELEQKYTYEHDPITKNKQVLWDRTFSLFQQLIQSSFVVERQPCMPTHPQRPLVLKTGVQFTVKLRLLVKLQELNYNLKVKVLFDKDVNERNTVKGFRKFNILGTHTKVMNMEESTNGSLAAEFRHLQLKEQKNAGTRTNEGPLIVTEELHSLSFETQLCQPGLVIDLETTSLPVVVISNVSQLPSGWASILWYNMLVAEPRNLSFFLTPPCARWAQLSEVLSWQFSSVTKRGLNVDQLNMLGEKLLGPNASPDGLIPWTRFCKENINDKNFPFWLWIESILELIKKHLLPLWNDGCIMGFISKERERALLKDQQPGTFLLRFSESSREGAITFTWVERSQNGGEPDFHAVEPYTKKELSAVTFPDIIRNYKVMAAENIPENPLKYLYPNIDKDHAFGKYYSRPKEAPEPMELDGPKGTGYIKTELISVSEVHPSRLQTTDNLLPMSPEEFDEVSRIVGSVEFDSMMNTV

T8 sequence (P27986 624-718 limits assumed): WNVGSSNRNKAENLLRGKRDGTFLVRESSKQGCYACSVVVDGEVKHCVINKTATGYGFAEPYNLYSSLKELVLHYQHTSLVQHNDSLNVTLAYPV
T3 sequence (P16591 460-550 limits assumed): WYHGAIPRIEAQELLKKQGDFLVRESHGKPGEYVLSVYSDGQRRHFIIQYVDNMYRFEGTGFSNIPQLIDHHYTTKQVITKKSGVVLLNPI

CC(C)C[C@H](NC(=O)[C@H](Cc1c[nH]c2ccccc12)NC(=O)[C@H](CCCCN)NC(=O)[C@H](CC(=O)O)NC(=O)[C@H](CC(C)C)NC(=O)[C@@H](NC(=O)[C@H](CC(C)C)NC(=O)[C@H](Cc1ccc(OP(=O)(O)O)cc1)NC(=O)[C@@H](NC(=O)[C@H](CC(=O)O)NC(=O)[C@@H](N)CCC(N)=O)[C@@H](C)O)C(C)C)C(=O)O (H-QDT[pY]LVLDKWL-OH) was tested, and the Kd (STAT5B(N642H)) was 97.8 ± 43.3 nM and the Kd (STAT5B) was 1020 ± 179 nM.
With CC(=O)N[C@@H](CC(=O)O)C(=O)N[C@@H](CCC(=O)O)C(=O)N[C@@H](Cc1ccc(OP(=O)(O)O)cc1)C(=O)N[C@@H](CCC(=O)O)C(=O)N[C@@H](CC(N)=O)C(=O)N[C@H](C(=O)N[C@@H](CC(=O)O)C(N)=O)C(C)C [Ac-DEpYENVD-NH2] (Ac-DE[pY]ENVD-NH2) the Kd (FER) was 7770 ± 2130 nM.
In the case of CSCC[C@H](NC(=O)[C@H](CC(=O)O)NC(=O)[C@H](Cc1ccc(OP(=O)(O)O)cc1)NC(=O)[C@H](CC(=O)O)NC(=O)[C@H](Cc1ccccc1)NC(=O)[C@H](CO)NC(C)=O)C(=O)N1CCC[C@H]1C(=O)N[C@@H](Cc1c[nH]cn1)C(=O)N[C@H](C(=O)N[C@@H](CC(C)C)C(N)=O)C(C)C [Ac-SFDpYDMPHVL-NH2] (Ac-SFD[pY]DMPHVL-NH2), the Kd (STAT4) is reported as 1280 ± 133 nM.
CC(=O)N[C@@H](CCCCN)C(=O)N[C@@H](CCC(=O)O)C(=O)N[C@@H](CCC(=O)O)C(=O)NCC(=O)N[C@@H](Cc1ccc(OP(=O)(O)O)cc1)C(=O)N[C@@H](CCC(=O)O)C(=O)N[C@@H](CC(C)C)C(=O)N1CCC[C@H]1C(=O)N[C@@H](Cc1ccc(O)cc1)C(=O)N[C@@H](CC(N)=O)C(=O)N1CCC[C@H]1C(N)=O [Ac-KEEGpYELPYNP-NH2] was tested, and the Kd (ABL1) was 28800 ± 8130 nM.
Molecule CC[C@H](C)[C@H](NC(=O)[C@H](CC(C)C)NC(=O)[C@H](CC(=O)O)NC(=O)[C@H](CCC(N)=O)NC(=O)[C@H](Cc1ccccc1)NC(=O)[C@@H]1CCCN1C(=O)[C@H](CCCCN)NC(=O)[C@H](Cc1ccc(OP(=O)(O)O)cc1)NC(C)=O)C(N)=O (Ac-[pY]KPFQDLI-NH2) has a Kd (STAT6) of 928 ± 249 nM.
With CSCC[C@H](NC(=O)[C@@H]1CCCN1C(=O)[C@@H](NC(=O)[C@H](Cc1ccc(OP(=O)(O)O)cc1)NC(=O)CNC(C)=O)C(C)C)C(=O)N[C@@H](CC(C)C)C(=O)O [Ac-GpYVPML-OH] (Ac-G[pY]VPML-OH) the Kd (PIK3R2(SH2dom.C-term.)) was 4.82 ± 1.95 nM, the Kd (PIK3R1(SH2dom.C-term.)) was 4.24 ± 0.48 nM and the Kd (PIK3R3(SH2dom.C-term.)) was 2.27 ± 0.32 nM.
CC(=O)NCC(=O)N[C@@H](Cc1ccc(OP(=O)(O)O)cc1)C(=O)N[C@@H](CC(=O)O)C(=O)N[C@@H](CCCCN)C(=O)N1CCC[C@H]1C(=O)N[C@@H](Cc1c[nH]cn1)C(=O)N[C@H](C(=O)N[C@@H](CC(C)C)C(N)=O)C(C)C [Ac-GpYDKPHVL-NH2] (Ac-G[pY]DKPHVL-NH2) showed a Kd (STAT1) of 155 ± 38.2 nM.
